Where two headings read alike, the source gives them in different places.
Assays:
[1] = system: ELEIN - goosegrass (Eleusine indica (L.) Gaertn.); conditions: 14 DAA, greenhouse, foliar
Procedure: (§1) Seeds or nutlets of the desired test plant species were planted in a soil matrix prepared by mixing a sandy loam soil (28.6 percent silt, 18.8 percent clay, and 52.6 percent sand, with a pH of about 5.8 and an organic matter content of about 1.8 percent) and calcareous grit in an 80 to 20 ratio. The soil matrix was contained in plastic pots with a surface area of 84.6 cm^2 and a volume of 560 cubic centimeters (cm^3). […] The plants were grown for 7-31 days (d) in a greenhouse with an approximate 15 hour (h) photoperiod which was maintained at about 23-29° C. during the day and 22-28° C. during the night. Nutrients (Peters Excel® 15-5-15 5-Ca2-Mg) and water were added on a regular basis and supplemental lighting was provided with overhead metal halide 1000-Watt lamps as necessary. The plants were employed for testing when they reached the first, second, or third true leaf stage.
(§2) Treatments consisted of the potassium (K^+) salt of 4-amino-3-chloro-6-(4-chloro-2-fluoro-3-methoxy-phenyl)pyridine-2-carboxylic acid formulated as an SL or the benzyl ester of 4-amino-3-chloro-6-(4-chloro-2-fluoro-3-methoxy-phenyl)pyridine-2-carboxylic acid as technical material, and 2,4-D dimethylamine (DMA) salt applied as Weedar® 64 EC alone and in combination. Forms of the pyridine carboxylic acid and 2,4-D were applied on an acid equivalent basis.
(§3) For treatments comprised of formulated compounds, measured amounts of compounds were placed individually in 25 mL glass vials and diluted in a volume of 1.5% (v/v) Agri-dex® crop oil concentrated to obtain 6× stock solutions. […] Application solutions were prepared by adding an appropriate amount of each stock solution (typically 2 mL) and diluted to the appropriate final concentrations with the addition of an appropriate amount of an aqueous mixture of 1.5% (v/v) crop oil concentrate and an appropriate amount of water so that the final spray solutions contained 1.25+/−0.05% (v/v) crop oil concentrate.
(§4) For treatments comprised of formulated and technical compounds, weighed amounts of the technical materials were placed individually in 25 mL glass vials and dissolved in a volume of 97:3 v/v acetone/DMSO to obtain 6× stock solutions, and measured amounts of the formulated compounds were placed individually in 25 mL glass vials and diluted in a volume of 1.5% (v/v) crop oil concentrate to obtain 6× stock solutions. […] Application solutions were prepared by adding an appropriate amount of each stock solution (eg, 2 mL) and diluted to the appropriate final concentrations with the addition of an appropriate amount of an aqueous mixture of 1.5% (v/v) crop oil concentrate and an appropriate amount of water so that the final spray solutions contained 1.25% (v/v) crop oil concentrate. The final acetone and DMSO concentrations of the application solutions containing technical material were 16.2% and 0.5%, respectively.
(§5) All stock solutions and applications solutions were visually inspected for compound compatibility prior to application. Compound requirements are based upon a 12 mL application volume at a rate of 187 liters per hectare (L/ha). Application solutions were applied to the plant material with an overhead Mandel track sprayer equipped with 8002E nozzles calibrated to deliver 187 L/ha over an application area of 0.503 square meters (m^2) at a spray height of 18 to 20 inches above the average plant canopy height. Control plants were sprayed in the same manner with the solvent blank.
(§6) The treated plants and control plants were placed in a greenhouse as described above and watered by sub-irrigation to prevent wash-off of the test compounds. After approximately 2 weeks, the condition of the test plants as compared with that of the untreated plants was determined visually and scored on a scale of 0 to 100 percent where 0 corresponds to no injury and 100 corresponds to complete kill.

[2] = system: LOLMU - Italian ryegrass (Lolium perenne L. ssp. multiflorum (Lam.) Husnot); conditions: 14 DAA, greenhouse, foliar
Procedure: as §1, §2, §3, §4, §5, §6

[3] = system: PANDI - fall panicum (Panicum dichotomiflorum Michx.); assay: Greenhouse evaluation of postemergence herbicidal activity, foliar treatment, PANDI; assay type: in vivo; conditions: 16 DAA
From the text: Seeds or nutlets of the desired test plant species were planted in a soil matrix prepared by mixing a sandy loam soil (28.6 percent silt, 18.8 percent clay, and 52.6 percent sand, with a pH of about 5.8 and an organic matter content of about 1.8 percent) and calcareous grit in an 80 to 20 ratio. The soil matrix was contained in plastic pots with a surface area of 84.6 cm^2 and a volume of 560 cubic centimeters (cm^3). When required to ensure good germination and healthy plants, a fungicide treatment and/or other chemical or physical treatment was applied. The plants were grown for 7-31 days (d) in a greenhouse with an approximate 15 hour (h) photoperiod which was maintained at about 23-29° C. during the day and 22-28° C. during the night. Nutrients (Peters Excel® 15-5-15 5-Ca2-Mg) and water were added on a regular basis and supplemental lighting was provided with overhead metal halide 1000-Watt lamps as necessary. The plants were employed for testing when they reached the first, second, or third true leaf stage.
Treatment requirements were calculated based upon the rates being tested, the concentration of active ingredient or acid equivalent in the formulation, and a 12 mL application volume at a rate of 187 L/ha.
as §2, §3
For treatments comprised of formulated and technical compounds, weighed amounts of the technical materials were placed individually in 25 mL glass vials and dissolved in a volume of 97:3 v/v acetone/DMSO to obtain 6× stock solutions, and measured amounts of the formulated compounds were placed individually in 25 mL glass vials and diluted in a volume of 1.5% (v/v) crop oil concentrate to obtain 6× stock solutions. […]

[4] = system: MEOPA - escoba blanca (Melochia parviflora); assay: Field evaluation of postemergence herbicidal activity of mixtures in range and pasture (Colombia); assay type: in vivo; conditions: 14 DAA
Procedure: Field trials were conducted in pastures in Colombia using standard herbicide small plot research methodology. Plot size was typical for small plot research, varying from 2 meters (m) wide by 6 m long. There were 4 replicates per treatment. Soil type ranged from medium to heavy soil texture. Perennial pastures were sown by hand direct dry seeding as per normal local cultural practices. The pastures were grown using normal cultural practices for fertilization and maintenance to ensure good growth of the pastures and the weeds.
Treatments were applied by backpack sprayer using either compressed air or carbon dioxide (CO2), at spray pressures from […]. Spray tips were typically Flat Fan Teejet nozzles, such as TJ8003. Spray volumes used were 400 liters per hectare (L/ha). MEOPA plant size at application varied from 70 to 80 centimeters (cm) tall active growth at flowering stage.
For each treatment, the appropriate formulated product amount to treat the plot area, to achieve the desired application rate, based on unit area of application (hectare), was calculated, measured, and mixed in water prior to applying with the backpack sprayer. Treatments were rated as compared to the untreated control plots. 2,4-D was used as Invesamina 480 SL®. Compound I was formulated as a 10% weight percent active ingredient (wt ai %—100 grams ai per L (g ai/L); 95.94 g ae/L) suspension concentrate (SC) of the corresponding methyl ester.
For both Example 1 and Example 2, the Colby equation was used to determine the herbicidal effects expected from the mixtures (Colby, S. R. Calculation of the synergistic and antagonistic response of herbicide combinations. Weeds 1967, 15, 20-22.).
The following equation was used to calculate the expected activity of mixtures containing two active ingredients, A and B:
A=observed efficacy of active ingredient A at the same concentration as used in the mixture.
B=observed efficacy of active ingredient B at the same concentration as used in the mixture.

[5] = potassium salt 3.75 g ae/ha alone
[6] = 2,4-D dimethyl amine 52.5 g ae/ha alone
[7] = 2,4-D dimethyl amine 105 g ae/ha alone

COc1c(Cl)ccc(-c2cc(N)c(Cl)c(C(=O)OCc3ccccc3)n2)c1F [Pyridine Carboxylic Acid (Benzyl Ester), benzyl ester of 4-amino-3-chloro-6-(4-chloro-2-fluoro-3-methoxy-phenyl)pyridine-2-carboxylic acid]
ELEIN (% Control) Obs ([1]; benzyl ester 3.75 g ae/ha alone): 0%
ELEIN (% Control) Obs ([1]; benzyl ester 7.5 g ae/ha alone): 25%

COc1c(Cl)ccc(-c2cc(N)c(Cl)c(C(=O)[O-])n2)c1F.[K+] [potassium (K^+) salt of 4-amino-3-chloro-6-(4-chloro-2-fluoro-3-methoxy-phenyl)pyridine-2-carboxylic acid]
LOLMU (% Control) Obs [2, 5]: 15%
LOLMU (% Control) Obs ([2]; potassium salt 7.5 g ae/ha alone): 35%
PANDI (% Control) Obs [3, 5]: 75%

CNC.O=C(O)COc1ccc(Cl)cc1Cl [2,4-D (Dimethyl Amine), 2,4-D dimethylamine (DMA) salt]
ELEIN (% Control) Obs [1, 6]: 0%
ELEIN (% Control) Obs [1, 7]: 0%
LOLMU (% Control) Obs [2, 6]: 0%
LOLMU (% Control) Obs [2, 7]: 0%
PANDI (% Control) Obs [3, 6]: 0%
PANDI (% Control) Obs [3, 7]: 0%
PANDI (% Control) Obs ([3]; 2,4-D dimethyl amine 210 g ae/ha alone): 0%

O=C(O)COc1ccc(Cl)cc1Cl [2,4-D, (2,4-dichlorophenoxy)acetic acid]
MEOPA (% Control) Obs ([4]; 2,4-D 480 g ae/ha alone): 3.8%

COC(=O)c1nc(-c2ccc(Cl)c(OC)c2F)cc(N)c1Cl [Pyridine Carboxylic Acid (Methyl Ester), halauxifen-methyl]
MEOPA (% Control) Obs ([4]; methyl ester 17.5 g ae/ha alone): 48.5%
MEOPA (% Control) Obs ([4]; methyl ester 35 g ae/ha alone): 63.1%

— patent US20130143738A1, “HERBICIDAL COMPOSITION CONTAINING CERTAIN PYRIDINE CARBOXYLIC ACIDS AND (2,4-DICHLOROPHENOXY)ACETIC ACID” (DOW AGROSCIENCES LLC, priority 2011, published 2013)
